# Laboratory results as given in patent US9750756B2, “Celecoxib compositions” (Pfizer Inc., priority 1998, dated 2017).
# Test: Effect of food study (Example 17)
# Assay type: in vivo, human
# Conditions: healthy adult subjects, single 50 mg or 100 mg capsule doses, fasting or fed
# Protocol: An open-label randomized, single dose, four-way crossover study was employed to evaluate the dose proportionality and the effect of food on the pharmacokinetic profile of celecoxib in healthy adult subjects. Safety was assessed based on adverse events, vital signs and clinical laboratory tests. Twenty four healthy adult subjects were randomized to receive the following single doses of celecoxib: (A) a 50 mg dose capsule under fasting conditions, (B) a 50 mg dose capsule immediately following a high fat breakfast, (C) a 100 mg dose capsule under fasting conditions, and (D) a 100 mg dose capsule immediately following a high fat breakfast. The subjects received the study medication on days 1, 8, 15 and 22 in one of four treatment sequences (ADBC; BACD; CBDA; and DCAB). The specific composition of the 100 mg dose capsule is disclosed in Example 1. The specific composition of the 50 mg dose capsule is disclosed in Table 17A below:
# Blood samples were collected at −0.25 (predose), 0.5, 1, 1.5, 2, 3, 4, 6, 8, 12, 16, 24, 36 and 48 hours post dose. Analyses of the separated plasma were performed at PPD Pharmaco, Richmond, Va. Celecoxib plasma concentrations were determined using a validated high performance liquid chromatography (“HPLC”) procedure with a lower limit of detection of 10.0 ng/ml. […] All adverse events were mild in severity.
structure (smiles),measurement,value
"Cc1ccc(-c2cc(C(F)(F)F)nn2-c2ccc(S(N)(=O)=O)cc2)cc1 [celecoxib, 4-[5-(4-methylphenyl)-3-(trifluoromethyl)-1H-pyrazol-1-yl]benzenesulfonamide]",changes in vital signs or physical examinations,no clinically significant changes
same,severity of adverse events,mild
